Earlier results on 8 compounds are cited in US20190290552A1, “ETHANOLIC COMPOSITIONS COMPRISING PERFUME” (Conopco, Inc., d/b/a UNILEVER, priority 2016, published 2019).

The conditions of this data set: taken from the Good Scents website.
`C=CC(C)(O)CCC=C(C)C` (centres unmarked) [Linalool]: the LogKow is listed as 2.7.

In the case of `C=CC(C)(CCC=C(C)C)OC(=O)CCC` (centres unmarked) [Linalyl Butyrate], the LogKow was 4.1. Turning to `C=C(C)[C@H]1CC=C(C)CC1` [Limonene], the LogKow is on record as 3.4. For `O=C1CCCCCCCCCCCCO1` [Oxacyclotetradecan-2-one], the LogKow is given as 4.7. Regarding `C=CC(C)(O)CCC=C(C)CC` (centres unmarked) [3,7-Dimethyl-1,6-nonadien-3-ol], the LogKow is given as 3.7. On to `CC(C=O)Cc1ccc(C(C)(C)C)cc1` (centres unmarked) [Lilial], for which the LogKow is listed as 3.6.

Take `CC1=CC[C@]2(C)CCCC(C)(C)[C@@]23C[C@@H]13` [Thujopsene]: the LogKow is 4.8. For `CCCCCC1C(=O)CCC1CC(=O)OC` (centres unmarked) [Methyl dihydrojasmonate], the LogKow is listed as 2.7.
